# Assay results reported in patent US20230331674A1 (priority 2020, published 2023).
# Values joined by “and” are separate entries in the source; they are usually repeats but may differ in a detail not shown here. Equal values may be shown once.
# Tests used:
# Type in all cases: in vivo, dog
# [1] = test system: dogs with canine cognitive dysfunction; assay: CADES score questionnaire in dogs with cognitive dysfunction; conditions: for Average CADES score: treated dogs
# Source text: Thirty-one dogs older than 10 years were screened for the study. Of these, 14 were excluded from the study because of different abnormal findings observed during the initial examination, including 3 dogs with brain tumor confirmed with the computed tomography (CT); 2 dogs with markedly elevated alanine aminotransferase (ALT) and serum alkaline phosphatase (ALP); 3 dogs with renal disease; 3 dogs with marked hearing and visual deficit; 2 dogs with both renal disease and moderately elevated ALT and ALP and 1 dog with eclampsia.
# After the owner's consent, dogs were subjected to physical and neurological examination including body weight and body condition score, blood results for complete blood count (CBC), clinical chemistry, urinanalysis, the canine dementia scale (CADES) questionnaire, and two clinical cognitive tests [food searching test (FST) and problem solving test (PST)]. After these thorough examinations, the decision was made whether the dogs were included in the study. Dogs with systemic illnesses that could interfere with their cognitive function were excluded from the study.
# Only dogs aged 10 years or older were included in the study. […] Dogs were not treated with any other medications for cognitive impairment. However, dogs that were included in the control group were allowed to be feed with the commercial therapeutic diet for cognitive decline, if they were on it at least 8 weeks before entering the study and if they maintained the same dietary protocol for the duration of the study. Dogs in the treatment group that were on a diet meant to treat cognitive decline were required to be off the diet for at least 30 days before enrollment and during the duration of the study.
# (§1) The study design was following the guidelines of the European Directive 2010/63/EU. Before starting the experimental therapy with their pets, each owner was required to sign an informed consent form. According to The Administration of the Republic of Slovenian for Food Safety, Veterinary and Plant Protection, no ethical permission was needed as the study was performed on clinical patients with the owners' consents. In total, seventeen dogs showing signs of cognitive dysfunction were included in the study. […] Upon enrollment, dogs were physically and neurologically examined, blood and urine analysis were performed. Additionally, a questionnaire based on a modified CADES scale score and two clinical tests (FST and problem PST) for assessing their cognitive function were performed. Dogs were randomly allocated to one of the following two groups: Control group (n=7) without treatment and the treatment group (n=10). Questionnaire and cognitive tests were performed every 2 months on all the dogs included in the study.
# Owners were observing their dog's health status daily during the duration of the study. In case of any serious or abnormal observations, they had to contact the participating veterinarian. Physical and excessive neurological examinations (behavior and consciousness, cranial nerves, gait and posture, postural reactions, spinal reflexes) were carried out by the veterinarian and included an assessment of all body systems. A full spectrum of neurobehavioral symptoms including apathy, anxiety, staring blankly, confusion or aimless walking, vocalization during the night, aggression, signs of compulsive and stereotyped behavior, etc. were obtained by questioning the pet owners. Dogs were monitored during examinations. Their responses to familiar and unfamiliar people and objects were observed. Exams were performed at the beginning of the study and every two weeks for the first two months if dogs were included in the treatment group. Thereafter, exams were performed every two months for the duration of the study (at least for 6 months). The control group was examined only every 2 months until the end of the study (for at least 6 months).
# Changes in behavior of all dogs were evaluated by the same veterinarian. […]
# [2] = test system: dogs with canine cognitive dysfunction; assay: Cognitive tests (food searching test FST and problem solving test PST) in dogs with cognitive dysfunction; parameters: Problem solving test scores (sum of FST and PST test), individual patient: scale not given here; conditions: for Problem solving score (sum of FST and PST), group mean: treated dogs; for Problem solving test scores (sum of FST and PST test), individual patient: treated group, one line per patient 1-7, Hydrochloride
# Protocol: as §1
# FST and PST were performed on each dog included in the study. The design of these tests was based on previously published tests for canine cognitive dysfunction (González-Martinez A. et al. Vet. J. 2013, 198, 176-181). The cognitive tests were evaluated by the same veterinarian. Dogs were tested in the morning after at least 10 hours of the fasting period.
# This test was based on testing the dog's ability to find hidden food. The dog was seated in the middle of the room while being on the leash. […] While maintaining visual contact with the dog and still communicating with the dog, showing the food, the veterinarian than moved backward and placed the food in the corner of the room. The veterinarian than stared at the food and pointed to it with his hand for 2-3 s to increase the dog's visual processing. The owner was then asked to leave the room with the dog and wait outside for 15 s. After returning to the room, the dog was placed into the center of the room unleashed and allowed to freely explore the room for 1 minute. No verbal or other clues were allowed. The procedure was repeated twice. […] The FST total score was the average of both runs.
# In this test, the ability of the dog to obtain the food by manipulating an object was assessed. […] After that, the food was placed on the floor in front of the dog and covered with a transparent plastic box that had been turned upside down. The dog was given 2 minutes to find a way to remove the box and get the food. […]
# Results are presented as mean+SD. […] CADES score and results from behavioral tests were analyzed by repeated measures ANOVA with treatment as the independent variable and clinical test (before the treatment, 3 months, and 6 months after the treatment) as within factor. […]
# [3] = test system: dogs with canine cognitive dysfunction; assay: Side effects during treatment of dogs with cognitive dysfunction
# Protocol: as §1
# Owners were observing their dog's health status daily during the duration of the study. In case of any serious or abnormal observations, they had to contact the participating veterinarian. […] Dogs were monitored during examinations. […]
# [4] = treated group, after three months
structure (smiles),measurement,setting,value
COCCN(CC1CCCN(Cc2ccccc2)C1)S(=O)(=O)c1ccc2ccccc2c1.Cl (racemic) [(±)-N-((1-Benzylpiperidin-3-Yl)Methyl)-N-(2-Methoxyethyl)Naphthalene-2-Sulfonamide Hydrochloride],Observed change in cognitive abilities,"[1]; all treated dogs, six-month study","improved memory, cognitive functions, and learning abilities"
same,Average CADES score,"[1]; after six months, untreated (2 remaining dogs) 80.5",12.6+/−3.0
same,Average CADES score,"[1]; after three months, baseline 39+/−16.4, untreated 64.0+/−12.8",17.1+/−10.6
same,Cognitive state according to CADES,"[1]; treated group, after six months",all dogs showed moderate cognitive impairment with low CADES score
same,Dogs showing moderate cognitive impairment (two affected domains),[1]; [4],85.7%
same,Dogs showing severe cognitive impairment (three affected domains),[1]; [4],14.3%
same,Survival,"[1]; treated group, six-month study, 5 of 7 untreated dogs euthanized",all dogs included stayed alive throughout the study
same,"Problem solving score (sum of FST and PST), group mean",[2]; after six months,2.7+/−1.0
same,"Problem solving score (sum of FST and PST), group mean","[2]; after three months, baseline 5.3+/−1.4, untreated 7.6+/−1",3.1+/−1.1
same,"Problem solving test scores (sum of FST and PST test), individual patient",[2]; after six months,2 (4×) and 3 and 4 (2×)
same,"Problem solving test scores (sum of FST and PST test), individual patient",[2]; after three months,4 (4×) and 2 (3×)
same,Side effects,"[3]; dogs with moderate cognitive impairment, 6 months of treatment",without any noticeable side effects
same,Side effects,"[3]; dogs with severe cognitive impairment (3 dogs), treatment stopped",signs of gastrointestinal problems with vomiting and diarrhea
